Measurements taken from US20180153995A1, “USE OF ANTIMICROBIAL POLYMERS FOR RE-SENSITIZATION OF MICROORGANISMS UPON EMERGENCE OF RESISTANCE TO ANTI-MICROBIAL AGENTS” (Technion Research & Development Foundation Limited, priority 2008, published 2018).
Like-named read-outs stand apart in the source and are kept apart here.

Tests used:
[1] = tested on: E. coli K-12 resistant wild type; type: cell-based, Escherichia coli; details: E. coli AG100 (w.t.)
[2] = tested on: E. coli 14384; test: Antibiotic MIC by microdilution with or without sub-MIC polymer; type: cell-based, Escherichia coli
Method in brief: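 Inoculum 10^5 bacteria/ml; 2-fold serial antibiotic dilutions ± […]; 24 h, 37° C; growth by OD 620 nm vs standards.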

[3] = tested on: S. maltophila 748; test: as above; type: cell-based, Stenotrophomonas maltophila
[4] = tested on: E. coli 16329; type: cell-based, Escherichia coli
Method in brief: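 Bacterial suspensions (100 μl) were added to 100 μl of culture medium carrying 2-fold serially diluted antibiotic together with a fraction of the polymer's MIC, or to plain medium as control. Plates were incubated 24 hours at 37° C, and proliferation was read at 620 nm against calibration standards. Starting inoculum was 10^5 bacteria per ml.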

[5] = tested on: S. aureus 15877; test: Antibiotic MIC by microdilution with or without sub-MIC polymer; type: cell-based, Staphylococcus aureus
[6] = tested on: S. aureus 43300; test: as above; type: cell-based, Staphylococcus aureus
[7] = tested on: E. coli 14182; test: as above; type: cell-based, Escherichia coli
[8] = tested on: S. aureus 15819; test: as above; type: cell-based, Staphylococcus aureus; details: S. aureus 15819
[9] = tested on: E. coli K-12 efflux knockout mutant; type: cell-based, Escherichia coli; details: E. coli AG100A (efflux−)
Method in brief: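 Broth microdilution, inocula 10^5 bacteria/ml, 24 h at 37 °C. Growth read as OD620 against calibration standards.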

[10] = tested on: MRSA 15903; test: microbe, parasite or virus in culture; type: cell-based, Staphylococcus aureus
Method in brief: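 Two-agent combinations tested against MRSA 15903; FIC index = A/MICA + B/MICB, using MICs in combination versus alone. Below 0.5 read as clear re-sensitizing, 0.5–4 marginal or null, above 4 antagonism.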

[11] = tested on: S. aureus 43300; test: Antibiotic MIC by microdilution with or without sub-MIC polymer; type: cell-based, Staphylococcus aureus; remark: listed apart in the source
[12] = polymer at ¼ of its MIC (Table 16)
[13] = polymer at ½ of its MIC (Table 16)
[14] = polymer at ⅓ of its MIC (Table 16)
[15] = the OAK at ¼ of its MIC (Table 17)
[16] = the OAK at ½ of its MIC (Table 17)
[17] = the OAK at ⅓ of its MIC (Table 17)
[18] = +¼ MIC (1.6 μM) C12K(KNC12K)3NH2
[19] = +½ MIC (3.12 μM) C12K(KNC12K)3NH2
[20] = +⅓ MIC (2.1 μM) C12K(KNC12K)3NH2
[21] = +¼ MIC (1.6 μM) C12(5-ene)KKNC12KNH2
[22] = +½ MIC (3.12 μM) C12(5-ene)KKNC12KNH2
[23] = +⅓ MIC (2.1 μM) C12(5-ene)KKNC12KNH2

CC1(C)S[C@@H]2[C@H](NC(=O)Cc3ccccc3)C(=O)N2[C@H]1C(=O)O [Penicillin G, penicillin G] was tested, and the “Antibiotic MIC, None” value ([1]; antibiotic alone (Table 16)) was 32 µg/mL, the “Antibiotic MIC, None” value ([1]; antibiotic alone (Table 17)) was 32 µg/mL and the “Antibiotic MIC in presence of C12K(NC8K)7NH2 (SEQ ID NO: 4), +¼ MIC” value (from here on “Antibiotic MIC … (SEQ ID NO: 4), +¼ MIC”) [1, 12] was 16 to 32 µg/mL. The “Antibiotic MIC in presence of C12K(NC8K)7NH2 (SEQ ID NO: 4), +½ MIC” value (from here on “Antibiotic MIC … (SEQ ID NO: 4), +½ MIC”) [1, 13] was 8 µg/mL, the “Antibiotic MIC in presence of C12K(NC8K)7NH2 (SEQ ID NO: 4), +⅓ MIC” value (from here on “Antibiotic MIC … (SEQ ID NO: 4), +⅓ MIC”) [1, 14] was 8 to 16 µg/mL and the “Antibiotic MIC in presence of the OAK, +¼ MIC” value [1, 15] was 16 µg/mL. The “Antibiotic MIC in presence of the OAK, +½ MIC” value [1, 16] was 8 µg/mL, the “Antibiotic MIC in presence of the OAK, +⅓ MIC” value [1, 17] was 16 µg/mL and the “Antibiotic MIC” value [2] was 512 µg/mL. For the same molecule, the “Antibiotic MIC” value ([2]; E. coli 14384, +½ MIC C12K(NC8K)5NH2) was >512 µg/mL, the “Antibiotic MIC, None” value ([2]; E. coli 14384, antibiotic alone (Table 15)) was >512 µg/mL and the “Antibiotic MIC” value ([2]; E. coli 14384, no polymer (None), Table 9) was 512 µg/mL. For the same molecule, the “Antibiotic MIC” value ([2]; E. coli 14384, no polymer (None), Table 14) was >512 µg/mL, the “Antibiotic MIC … (SEQ ID NO: 4), +¼ MIC” value ([2]; E. coli 14384, polymer at ¼ of its MIC) was >512 µg/mL and the “Antibiotic MIC … (SEQ ID NO: 4), +½ MIC” value ([2]; E. coli 14384, polymer at ½ of its MIC) was >512 µg/mL. The “Antibiotic MIC … (SEQ ID NO: 4), +⅓ MIC” value ([2]; E. coli 14384, polymer at ⅓ of its MIC) was >512 µg/mL, the “Antibiotic MIC” value [3, 18] was 512 µg/mL and the “Antibiotic MIC” value [3, 19] was 128 µg/mL. For the same molecule, the “Antibiotic MIC” value [3, 20] was 256 to 512 µg/mL, the “Antibiotic MIC” value ([3]; no polymer (None), Table 13) was 512 µg/mL and the “Antibiotic MIC” value [4] was 256 µg/mL. The “Antibiotic MIC” value ([4]; E. coli 16329, no polymer (None), Table 10) was 512 µg/mL, the “Antibiotic MIC” value ([4]; E. coli U-16329, +¼ MIC C12K(NC8K)5NH2) was 256 µg/mL and the “Antibiotic MIC” value ([4]; E. coli U-16329, +½ MIC C12K(NC8K)5NH2) was 256 µg/mL. The “Antibiotic MIC” value ([4]; E. coli U-16329, +⅓ MIC C12K(NC8K)5NH2) was 256 µg/mL, the “Antibiotic MIC, None” value ([4]; E. coli U-16329, antibiotic alone (Table 15)) was 256 µg/mL and the “Antibiotic MIC” value ([4]; E. coli U-16329, no polymer (None), Table 14) was 256 µg/mL. The “Antibiotic MIC … (SEQ ID NO: 4), +¼ MIC” value ([4]; E. coli U-16329, polymer at ¼ of its MIC) was 256 µg/mL, the “Antibiotic MIC … (SEQ ID NO: 4), +½ MIC” value ([4]; E. coli U-16329, polymer at ½ of its MIC) was 128 to 256 µg/mL and the “Antibiotic MIC … (SEQ ID NO: 4), +⅓ MIC” value ([4]; E. coli U-16329, polymer at ⅓ of its MIC) was 128 to 256 µg/mL. The “Antibiotic MIC” value [5, 21] was 8 µg/mL, the “Antibiotic MIC” value [5, 22] was 8 µg/mL and the “Antibiotic MIC” value [5, 23] was 8 µg/mL. The “Antibiotic MIC” value ([5]; no polymer (None), Table 8) was 8 µg/mL, the “Antibiotic MIC” value ([6]; +¼ MIC (1.6 μM) C14(9-ene)KKNC12KNH2) was 4 µg/mL and the “Antibiotic MIC” value [6, 22] was 0.03 µg/mL. For the same molecule, the “Antibiotic MIC” value ([6]; +½ MIC (3.12 μM) C14(9-ene)KKNC12KNH2) was 2 µg/mL, the “Antibiotic MIC” value ([6]; +⅓ MIC (2.1 μM) C14(9-ene)KKNC12KNH2) was 4 µg/mL and the “Antibiotic MIC” value ([6]; no polymer (None), Table 8) was 4 µg/mL. The “Antibiotic MIC” value ([6]; no polymer (None), Table 9) was 4 µg/mL, the “Antibiotic MIC” value ([6]; no polymer (None), Table 10) was 4 µg/mL and the “Antibiotic MIC” value ([6]; no polymer (None), Table 11) was 8 µg/mL. The “Antibiotic MIC” value ([6]; no polymer (None), Table 12) was 8 µg/mL, the “Antibiotic MIC” value ([7]; +½ MIC C12K(NC8K)5NH2) was >512 µg/mL and the “Antibiotic MIC, None” value ([7]; antibiotic alone (Table 15)) was >512 µg/mL. The “Antibiotic MIC” value ([7]; no polymer (None), Table 14) was >512 µg/mL, the “Antibiotic MIC … (SEQ ID NO: 4), +¼ MIC” value ([7]; polymer at ¼ of its MIC) was >512 µg/mL and the “Antibiotic MIC … (SEQ ID NO: 4), +½ MIC” value ([7]; polymer at ½ of its MIC) was >512 µg/mL. The “Antibiotic MIC … (SEQ ID NO: 4), +⅓ MIC” value ([7]; polymer at ⅓ of its MIC) was >512 µg/mL, the “Antibiotic MIC” value [8, 21] was 8 to 12 µg/mL and the “Antibiotic MIC” value [8, 18] was 4 µg/mL. For the same molecule, the “Antibiotic MIC” value ([8]; +¼ MIC (1.6 μM) C12KKNC12KNH2) was 8 µg/mL, the “Antibiotic MIC” value [8, 22] was 4 µg/mL and the “Antibiotic MIC” value [8, 19] was 0.5 µg/mL. The “Antibiotic MIC” value ([8]; +½ MIC (3.12 μM) C12KKNC12KNH2) was 2 µg/mL, the “Antibiotic MIC” value [8, 23] was 8 µg/mL and the “Antibiotic MIC” value [8, 20] was 2 µg/mL. For the same molecule, the “Antibiotic MIC” value ([8]; +⅓ MIC (2.1 μM) C12KKNC12KNH2) was 4 µg/mL, the “Antibiotic MIC” value ([8]; no polymer (None), Table 8) was 16 µg/mL and the “Antibiotic MIC” value ([8]; no polymer (None), Table 11) was 16 µg/mL. The “Antibiotic MIC” value ([8]; no polymer (None), Table 13) was 16 µg/mL, the “Antibiotic MIC, None” value ([9]; antibiotic alone (Table 16)) was 8 µg/mL and the “Antibiotic MIC, None” value ([9]; antibiotic alone (Table 17)) was 8 µg/mL. For the same molecule, the “Antibiotic MIC … (SEQ ID NO: 4), +¼ MIC” value [9, 12] was 8 µg/mL, the “Antibiotic MIC … (SEQ ID NO: 4), +½ MIC” value [9, 13] was 4 µg/mL and the “Antibiotic MIC … (SEQ ID NO: 4), +⅓ MIC” value [9, 14] was 8 µg/mL. For the same molecule, the “Antibiotic MIC in presence of the OAK, +¼ MIC” value [9, 15] was 4 to 8 µg/mL, the “Antibiotic MIC in presence of the OAK, +½ MIC” value [9, 16] was 4 µg/mL and the “Antibiotic MIC in presence of the OAK, +⅓ MIC” value [9, 17] was 4 to 8 µg/mL. It also gave an MIC ([10]; MRSA 15903, +¼ polymer MIC (1.6 μM) NC12(KNC12K)2NH2) of 8 µg/mL, an MIC ([10]; MRSA 15903, +½ polymer MIC (3.1 μM) NC12(KNC12K)2NH2) of 1 µg/mL and an MIC ([10]; MRSA 15903, +⅓ polymer MIC (2.1 μM) NC12(KNC12K)2NH2) of 2 µg/mL. The MIC ([10]; MRSA 15903, antibiotic alone) was 64 µg/mL, the “MIC, Alone” value ([10]; MRSA 15903, antibiotic alone (Table 22)) was 64 µg/mL and the “MIC, ¼ + MIC OAK” value ([10]; MRSA 15903, with C12K(KNC10K)3NH2 (SEQ ID NO: 10) at ¼ of its MIC) was 64 µg/mL. The “MIC, ½ + MIC OAK” value ([10]; MRSA 15903, with C12K(KNC10K)3NH2 (SEQ ID NO: 10) at ½ of its MIC) was 4 to 16 µg/mL, the “MIC, ⅓ + MIC OAK” value ([10]; MRSA 15903, with C12K(KNC10K)3NH2 (SEQ ID NO: 10) at ⅓ of its MIC) was 64 µg/mL and the MIC ([10]; S. aureus CI-15903, +polymer (¼ MIC) C12(5-ene)KKNC12KNH2) was 32 µg/mL. The MIC ([10]; S. aureus CI-15903, +polymer (½ MIC) C12(5-ene)KKNC12KNH2) was 0.25 µg/mL, the MIC ([10]; S. aureus CI-15903, +polymer (⅓ MIC) C12(5-ene)KKNC12KNH2) was 4 µg/mL and the MIC ([10]; S. aureus CI-15903, alone) was 64 µg/mL. For the same molecule, the “Antibiotic MIC” value [11, 21] was 1 µg/mL, the “Antibiotic MIC” value ([11]; +¼ MIC (1.6 μM) C12K(KNC12K)2NH2) was 8 µg/mL and the “Antibiotic MIC” value ([11]; +¼ MIC (1.6 μM) C12KKNC12KNH2) was 4 µg/mL. For the same molecule, the “Antibiotic MIC” value ([11]; +¼ MIC (1.6 μM) C16(9-ene)KKNC12KNH2) was 2 µg/mL, the “Antibiotic MIC” value ([11]; +½ MIC (3.12 μM) C12K(KNC12K)2NH2) was 4 µg/mL and the “Antibiotic MIC” value ([11]; +½ MIC (3.12 μM) C12KKNC12KNH2) was 1 µg/mL. For the same molecule, the “Antibiotic MIC” value ([11]; +½ MIC (3.12 μM) C16(9-ene)KKNC12KNH2) was 0.25 µg/mL, the “Antibiotic MIC” value [11, 23] was 0.25 µg/mL and the “Antibiotic MIC” value ([11]; +⅓ MIC (2.1 μM) C12K(KNC12K)2NH2) was 8 µg/mL. The “Antibiotic MIC” value ([11]; +⅓ MIC (2.1 μM) C12KKNC12KNH2) was 2 to 4 µg/mL and the “Antibiotic MIC” value ([11]; +⅓ MIC (2.1 μM) C16(9-ene)KKNC12KNH2) was 1 to 2 µg/mL.
